Results on 4 compounds are retold here after US20240050564A1, “COMBINATION THERAPY USING AN ANTI-FUCOSYL-GM1 ANTIBODY” (BRISTOL-MYERS SQUIBB COMPANY, priority 2021, published 2024).

The test system of series [1] is DMS79 cells. Briefly: DMS-79 SCLC tumor model in mice, anti-fucosyl-GM1 and cisplatin (Example 1). The following applies: BMS-986012 0.3 mg/kg i.p. days 7, 10, 13, 17, 21; cisplatin 3 mg/kg days 7, 14, 21, 28 (alone with isotype control antibody). In kind it is in vivo, male C.B17 SCID mice. How it is done: Median tumor volumes are presented for groups of 8 mice at each data point. See Example 1.
(§1) A combination therapy method of the present invention involving antibody to fucosyl-GM1 and cisplatin was tested in the DMS-79 SCLC tumor model in mice ([…] mice per group). Bepler et al. (1989) Oncogene 4:45; Pettengill (1980) Cancer 45: 906; Pettengill et al. (1980) Exp. Cell Biol. 48:279. Briefly, DMS79 cells were cultured in RPMI with 10% fetal bovine serum (FBS), 2 mM L-glutamine, […] sodium bicarbonate, 4.5 g/L glucose, 10 mM HEPES, and 10 μM NaPyr prior to subcutaneous implantation in the right flanks of male C.B17 SCID mice (5 million cells in 0.1 mL phosphate-buffered saline (PBS) and 0.1 mL […]® gelatinous protein mixture per flank). When tumors reached a mean or median size of 80-155 mm^3 estimated by L×W×H/2 using a digital calipers, mice were randomized into treatment groups (N=8 mice per group).
Anti-fucosyl-GM1 antibody BMS-986012 was administered at 0.3 mg/kg i.p. to mice on days 7, 10, 13, 17 and 21 post implantation, and cisplatin was administered at 3 mg/kg on days 7, 14, 21 and 28. Because fucosyl-GM1 is a ganglioside rather than a protein, and is the same in mice as in humans, there was no need to use a “mouse surrogate” for mouse studies. Cisplatin was administered in combination with BMS-986012 and with an isotype control antibody at 3 mg/kg as a control. […]

Series [2] relates to DMS79 cells. Put plainly: DMS-79 SCLC tumor model in mice, anti-fucosyl-GM1 and etoposide (Example 2). In kind it is in vivo. To be noted: BMS-986012 3 mg/kg i.p. days 7, 11, 15, 18, 21; etoposide 15 mg/kg i.p. days 7, 9, 11 (alone with isotype control antibody). How it is done: Median tumor volumes are presented for groups of 8 mice at each data point. See Example 2.
as §1
A combination therapy method of the present invention involving antibody to fucosyl-GM1 and etoposide was tested in the DMS-79 SCLC tumor model in mice (N=9 mice per group), essentially as described in Example 1. Anti-fucosyl-GM1 antibody BMS-986012 was administered at 3 mg/kg i.p. to mice on days 7, 11, 15, 18 and 21 post-implantation, and etoposide was administered at 15 mg/kg i.p. on days 7, 9 and 11. […]

A short description of series [3]: Binding to closely related molecule GM1. The source says:
(§2) BMS-986012 is a first-in-class fully human monoclonal antibody (mAb) that specifically binds to the fucosyl-GM1 ganglioside. […] Because fucosyl-GM1 is preferentially found on the surface of lung cancer cells, BMS-986012 is particularly well suited to treating lung cancer, such as small cell lung cancer (SCLC).

Series [4] in a line: Binding of BMS-986012 to fucosyl-GM1.
Text: as §2

The next series has as its system Fc receptors. The following applies: non-fucosylated Fc domain; cited from earlier work.
The conditions of series [5]: non-fucosylated, compared to an antibody with typical mammalian glycosylation; cited from earlier work.
For series [6], the system named is small cell lung cancer (SCLC). The following applies: nivolumab monotherapy, 147 patients; cited from earlier work.

Regarding `N.N.[Cl][Pt][Cl]` [cisplatin, reference compound], the “tumor growth (median tumor volume, FIG. 1)” value in the series on DMS79 cells [1] is “effective as monotherapy to reduce tumor growth”.

For the compound `COc1cc([C@@H]2c3cc4c(cc3[C@@H](O[C@@H]3O[C@@H]5CO[C@@H](C)O[C@H]5[C@H](O)[C@H]3O)[C@H]3COC(=O)[C@H]23)OCO4)cc(OC)c1O` [etoposide, reference compound], the “tumor growth (median tumor volume, FIG. 2)” value with DMS79 cells [2] is recorded as “somewhat effective as monotherapy to reduce tumor growth”.

As for “BMS-986012: anti-fucosyl-GM1 mAb comprising heavy chains of SEQ ID NO: 3 and light chains of SEQ ID NO: 4”, the “tumor growth (median tumor volume, FIG. 1)” value in the series with DMS79 cells [1] is on record as “effective as monotherapy to reduce tumor growth”. The “antigen-specific binding to GM1” value in series [3] is given as “no detectable antigen-specific binding”. Besides, in series [4], the “binding to fucosyl-GM1” value was “high-affinity and dose-dependent saturable binding”. Further, the “affinity for Fc receptors” value in the series with Fc receptors was “higher affinity”. For the same compound, the “tumor growth (median tumor volume, FIG. 2)” value in the series on DMS79 cells [2] was “somewhat effective as monotherapy to reduce tumor growth”. In addition, the “antibody-dependent cellular cytotoxicity (ADCC)” value in series [5] was “enhanced”.

“nivolumab: anti-PD-1 mAb comprising heavy chains of SEQ ID NO: 13 and light chains of SEQ ID NO: 14”: in series [6], the “published ORR” value is recorded as 12% and the “published disease control rate” value was 29%.
